Columns and labels:
[1] = target: T1, MMP-9 (Homo sapiens, UniProt P14780); test: In vitro MMP inhibition, Ki determination (fluorogenic substrate II); assay type: biochemical; conditions: value not in parenthesis
T1 construct: made in house; host or cells: MMP-9-transfected HT1080 cells (spent media)
How it was run: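 HT1080-derived MMP-9, activated with APMA, trypsin or MMP-3, incubated 1 hr at room temperature with inhibitor and 4 μM fluorogenic substrate II (at or below Km) in pH 7.5 Tris/NaCl/CaCl2 buffer; ex 330/em 420 nm. Ki from Morrison-equation regression, without substrate correction.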

[2] = target: T2, MMP-13 (Homo sapiens, UniProt P45452); test: In vitro MMP inhibition, IC50 determination (fluorogenic substrate I); assay type: biochemical; conditions: value in parenthesis; read-out: MMP-13 (IC-50)
T2 construct: made in house; host or cells: baculovirus / insect cells
Experimental: Several hydroxamic acids and salts thereof were analyzed in in vitro assays to determine their ability to inhibit the MMP cleavage of peptide substrates. […] and IC50 constants were calculated from the assayed hydroxamic acid-MMP interactions.
Human recombinant MMP-1, MMP-2, MMP-9, MMP-13, and MMP-14 were used in this assay. All enzymes were prepared in Assignee's laboratories following usual laboratory procedures. Protocols for the preparation and use of these enzymes are available in the scientific literature. See, e.g., Enzyme Nomenclature (Academic Press, San Diego, Calif., 1992) (and the citations therein). See also, Freije et al., “Molecular cloning and expression of collagenase-3, a novel human matrix metalloproteinase produced by breast carcinomas,” J Biol. Chem., 269(24), 16766-16773 (1994).
The MMP-13 was obtained as a proenzyme from a full-length cDNA clone using baculovirus, as described by V. A. Luckow, “Insect Cell Expression Technology,” Protein Engineering: Principles and Practice, pp. 183-218 (edited by J. L. Cleland et al., Wiley-Liss, Inc., 1996). The expressed proenzyme was first purified over a heparin agarose column, and then over a chelating zinc chloride column. The proenzyme was then activated by APMA for use in the assay. Further details on baculovirus expression systems may be found in, for example, Luckow et al., J. Virol., 67, 4566-79 (1993). See also, O'Reilly et al, Baculovirus Expression Vectors: A Laboratory Manual (W.H. Freeman and Co., New York, N.Y., 1992). See also, King et al., The Baculovirus Expression System: A Laboratory Guide (Chapman & Hall, London, England, 1992).
All MMPs were activated using 4-aminophenylmercuric acetate (“APMA”, Sigma Chemical, St. Louis, Mo.) or trypsin. MMP-9 also was activated using human recombinant MMP-3 (purified in Assignee's laboratory following standard cloning and purification techniques).
Two fluorogenic, methoxycoumarin-containing polypeptide substrates were used in the MMP inhibition assays: [drawing 427] Here, “Dpa” is 3-(2,4-dinitrophenyl)-L-2,3-diaminopropionyl group, and “MCA” is 7-methoxycoumarin-4-yl acetyl. Substrate (I) was purchased from Baychem (Redwood City, Calif.), and substrate II was prepared Assignee's laboratory. Substrate I was used in the IC50 determination assays, while substrate II was used in the Ki determination assays. In the absence of MMP inhibitory activity, either substrate is cleaved at the Gly-Leu peptide bond. This cleavage separates the highly fluorogenic peptide from the 2,4-dinitrophenyl quencher, thus resulting in increase of fluorescent intensity.
The stock solutions of the assayed hydroxamic acids (or salts thereof) were prepared in 1% dimethyl sulfoxide (DMSO). These stock solutions were diluted in Buffer A (100 mM Tris-HCl, 100 mM NaCl, 10 mM CaCl2, 0.05% polyoxyethylene 23 lauryl ether, pH 7.5) to obtain solutions with different hydroxamic acid concentrations, i.e., assay solutions with different concentrations of the assayed MMP inhibitory compound. The experiment controls contained the same amount of Buffer A/DMSO as the assayed sample, but contained no hydroxamic acid (or salt thereof).
The assays from which the IC50 determinations were made were performed as follows. The MMPs were activated with either trypsin or APMA (4-aminophenylmercuric acetate, Sigma Chemical, St. Louis, Mo.). The assayed hydroxamic acid samples were incubated in Microfluor™ White Plates (Dynatech, Chantilly, Va.) and analyzed on a Perkin Elmer L550 plate reader (Norwalk, Conn.). The excitation wavelength was 328 nm, and the emission wavelength—415 nm. All samples (assayed hydroxamic acids and controls) were incubated in separate plates at room temperature in the presence of 4 μM of MMP substrate (I). As stated in the previous paragraph, samples containing varying concentrations of the same assayed hydroxamic acid were prepared. Inhibition was measured as a reduction in fluorescent intensity as a function of MMP inhibitor concentration. […]

T1 sequence (P14780 107-707 limits assumed): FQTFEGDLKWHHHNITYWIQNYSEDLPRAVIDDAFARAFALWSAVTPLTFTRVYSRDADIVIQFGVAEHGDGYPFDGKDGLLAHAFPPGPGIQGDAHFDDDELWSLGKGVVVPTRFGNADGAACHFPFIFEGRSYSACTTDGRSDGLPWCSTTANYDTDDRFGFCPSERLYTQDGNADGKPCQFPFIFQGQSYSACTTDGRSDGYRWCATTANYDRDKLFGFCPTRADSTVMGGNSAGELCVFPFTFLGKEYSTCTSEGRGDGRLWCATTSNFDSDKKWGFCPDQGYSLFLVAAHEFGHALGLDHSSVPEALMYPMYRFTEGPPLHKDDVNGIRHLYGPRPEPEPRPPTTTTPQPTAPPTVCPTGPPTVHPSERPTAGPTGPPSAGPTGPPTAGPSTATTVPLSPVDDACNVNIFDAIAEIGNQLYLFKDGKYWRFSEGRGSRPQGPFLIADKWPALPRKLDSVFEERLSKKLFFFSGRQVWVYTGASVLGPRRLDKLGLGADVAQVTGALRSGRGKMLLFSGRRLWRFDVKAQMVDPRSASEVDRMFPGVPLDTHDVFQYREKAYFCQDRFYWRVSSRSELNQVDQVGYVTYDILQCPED

| SMILES | Ki [1] | IC50 [2] |
| --- | --- | --- |
| CCCC(C)Cc1ccc(N2CCN(S(=O)(=O)C3(C(=O)NO)CCN(CCOC)CC3)CC2)cc1 (stereo not drawn) [Example 189] | 34.7 nM | 1 nM |
| CCC(C)Cc1ccc(N2CCN(S(=O)(=O)C3(C(=O)NO)CCN(CCOC)CC3)CC2)cc1 (stereo not drawn) [Example 190] | 3.76 nM | 2.4 nM |
| COCCN1CCC(C(=O)NO)(S(=O)(=O)N2CCN(c3ccc(CCCCC(C)C)cc3)CC2)CC1 [Example 191] | 4.21 nM | < 1 nM |
| CCCCCc1ccc(N2CCN(S(=O)(=O)C3(C(=O)NO)CCOCC3)CC2)nn1 [Example 197] | 20.2 nM | 35.1 nM |
| O=C(NO)C1(S(=O)(=O)N2CCN(c3ccc(Cl)nn3)CC2)CCOCC1 [Example 198] | 252 nM | 285 nM |
| CCCCCCc1ccc(N2CCN(S(=O)(=O)C3(C(=O)NO)CCN(CCOC)CC3)CC2)cc1 [Example 199] | 0.892 nM | 0.2 nM |
| O=C(NO)C1(S(=O)(=O)N2CCN(c3ccc(OC(F)(F)F)cc3)CC2)CCN(C2CC2)CC1 [Example 203] | 2.5 nM | 0.5 nM |

Now from value to compound:

| Ki [1] | IC50 [2] | SMILES |
| --- | --- | --- |
| 9.11 nM | 3.6 nM | COCCN1CCC(C(=O)NO)(S(=O)(=O)N2CCN(c3ccc(CC(C)C)cc3)CC2)CC1 [Example 192] |
| 3.11 nM | 1.9 nM | CCc1ccc(N2CCN(S(=O)(=O)C3(C(=O)NO)CCN(CCOC)CC3)CC2)cc1 [Example 193] |
| 7.19 nM | 3.1 nM | COCCN1CCC(C(=O)NO)(S(=O)(=O)N2CCN(c3ccc(C)cc3)CC2)CC1 [Example 194] |
| 23.2 nM | 11.5 nM | COCCN1CCC(C(=O)NO)(S(=O)(=O)N2CCN(c3ccccc3)CC2)CC1 [Example 195] |
| 79.6 nM | 177 nM | COCCN1CCC(C(=O)NO)(S(=O)(=O)N2CCN(c3nc4ccccc4o3)CC2)CC1 [Example 196] |
| 0.28 nM | 0.6 nM | CCCc1ccc(N2CCN(S(=O)(=O)C3(C(=O)NO)CCN(CCOC)CC3)CC2)cc1 [Example 200] |
| 3.48 nM | 0.8 nM | COCCN1CCC(C(=O)NO)(S(=O)(=O)N2CCN(c3ccc(Br)cc3)CC2)CC1 [Example 201] |
| 4.67 nM | 0.2 nM | COCCN1CCC(C(=O)NO)(S(=O)(=O)N2CCN(c3ccc(OC(F)(F)F)cc3)CC2)CC1 [Example 202] |

From patent publication US20050209278A1, “Piperidinyl- and piperazinyl-sulfonylmethyl hydroxamic acids and their use as protease inhibitors” (priority 2002, published 2005)
